From ChEMBL document CHEMBL3286346, “Ultrapure ajulemic acid has improved CB2 selectivity with reduced CB1 activity” (Bioorg Med Chem, 2014)
The source made the active and inactive calls. No cut-off for these calls is given here.

How the values were obtained:
Cannabinoid receptor 2 = Cannabinoid receptor 2 (Homo sapiens, UniProt P34972); experiment: Displacement of [3H]-CP-55940 from human CB2 receptor expressed in HEK293T cell membranes by scintillation counting; design: species or system HEK-293T
HL-60 [1] = experiment: Antiinflammatory activity in human HL60 cells assessed as stimulation of PGJ synthesis after 2 hrs by ELISA in presence of CB1 antagonist SR141716; type: functional, cell-based
HL-60 [2] = experiment: Antiinflammatory activity in human HL60 cells assessed as stimulation of PGJ synthesis after 2 hrs by ELISA; type: functional, cell-based
Mus musculus [3] = experiment: Antinociceptive activity in CD1 mouse assessed as increase in paw withdrawal latency at 56 mg/kg, po measured after 90 mins post dose by hot plate test relative to vehicle-treated control; type: functional, organism-based; design: dose 56 mg/kg
HL-60 [4] = experiment: Antiinflammatory activity in human HL60 cells assessed as stimulation of PGJ synthesis after 2 hrs by ELISA in presence of CB2 antagonist SR144528; type: functional, cell-based
Mus musculus [5] = experiment: Toxicity in CD1 mouse assessed as hypothermia measured as lowering of core body temperature at 3 to 56 mg/kg, po measured after 90 mins post dose; type: organism-based; design: dose 3-56 mg/kg, route oral; settings: in vivo, 1.5 h
Cannabinoid receptor 1 = Cannabinoid receptor 1 (Homo sapiens, UniProt P21554); experiment: biochemical; type: cell-based, HEK-293T
Description: Displacement of [3H]-CP-55940 from human CB1 receptor expressed in HEK293T cell membranes by scintillation counting

HEK-293T = experiment: Selectivity ratio of Ki for human CB1 receptor expressed in HEK293T cell membranes to human CB2 receptor expressed in HEK293T cell membranes; type: cell-based
Mus musculus [6] = experiment: Toxicity in CD1 mouse assessed as time immobility on the ring for 5 mins at 30 mg/kg, po measured after 90 mins post dose by ring catalepsy test; type: organism-based; design: dose 30 mg/kg, route oral; settings: in vivo
Mus musculus [7] = experiment: Antinociceptive activity in CD1 mouse assessed as increase in paw withdrawal latency at 0.05 to 5 mg/kg, po measured after 90 mins post dose by hot plate test relative to vehicle-treated control; type: functional, organism-based

Chain of Cannabinoid receptor 1 (P21554 whole entry): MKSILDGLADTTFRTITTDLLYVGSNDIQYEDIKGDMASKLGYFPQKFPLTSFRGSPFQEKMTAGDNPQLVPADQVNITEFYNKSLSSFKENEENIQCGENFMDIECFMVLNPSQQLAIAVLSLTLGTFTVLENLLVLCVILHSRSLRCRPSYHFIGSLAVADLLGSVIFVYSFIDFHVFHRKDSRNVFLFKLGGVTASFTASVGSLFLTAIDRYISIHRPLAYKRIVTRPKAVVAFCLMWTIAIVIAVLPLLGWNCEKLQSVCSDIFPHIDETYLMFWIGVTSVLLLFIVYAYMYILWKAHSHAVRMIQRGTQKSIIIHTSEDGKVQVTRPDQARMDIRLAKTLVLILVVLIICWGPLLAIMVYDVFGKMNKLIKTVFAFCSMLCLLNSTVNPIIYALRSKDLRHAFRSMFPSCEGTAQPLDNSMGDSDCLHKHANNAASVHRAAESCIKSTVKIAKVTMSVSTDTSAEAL
Chain of Cannabinoid receptor 2 (P34972 whole entry): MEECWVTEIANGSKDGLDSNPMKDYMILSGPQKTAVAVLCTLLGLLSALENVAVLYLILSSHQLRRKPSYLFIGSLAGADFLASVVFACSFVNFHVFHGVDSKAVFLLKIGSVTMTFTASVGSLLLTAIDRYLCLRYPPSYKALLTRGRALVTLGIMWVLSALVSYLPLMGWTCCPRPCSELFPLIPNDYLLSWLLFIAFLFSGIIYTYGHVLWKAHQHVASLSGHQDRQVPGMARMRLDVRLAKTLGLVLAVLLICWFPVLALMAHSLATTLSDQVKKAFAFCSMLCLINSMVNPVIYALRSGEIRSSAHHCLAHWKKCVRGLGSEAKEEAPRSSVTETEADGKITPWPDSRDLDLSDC

SMILES: CCCCCCC(C)(C)c1cc(OC(C)=O)c2c(c1)OC(C)(C)[C@@H]1CC=C(C(=O)O)C[C@@H]21
- Ki (Cannabinoid receptor 2): 51 nM
- Activity (HL-60 [1]): inactive
- Activity (HL-60 [2]): Active
- Activity (Mus musculus [3]): inactive
- Activity (HL-60 [4]): inactive
- Activity (Mus musculus [5]): Non-toxic
- Ki (Cannabinoid receptor 1): 628 nM
- Ratio Ki (HEK-293T): 12.3
- Activity (Mus musculus [6]): Toxic

SMILES: CCCCCCC(C)(C)c1cc(O)c2c(c1)OC(C)(C)[C@@H]1CC=C(C(=O)O)C[C@@H]21
- Activity (Mus musculus [7]): Active
